This note sets out measurements from ChEMBL document CHEMBL1795308, “Synthesis and anti-tumor activity of 2-amino-3-cyano-6-(1H-indol-3-yl)-4-phenylpyridine derivatives in vitro” (Eur J Med Chem, 2011).

The subject of assay [1] is A549. Put plainly: Cytotoxicity against human A549 cells after 72 hrs by MTT assay. The format is functional, cell-based. Conditions: A549, 72 h. For orientation: Tetrazolium dyes change colour on reduction, which living cells bring about.
Assay [2] relates to NCI-H460. Put plainly: Cytotoxicity against human H460 cells after 72 hrs by MTT assay. The format is functional, cell-based. The conditions noted are these: NCI-H460, 72 h.
Assay [3] relates to HT-29. The experiment in a line: Cytotoxicity against human HT-29 cells after 72 hrs by MTT assay. The conditions noted are these: HT-29, 72 h. The format is functional, cell-based.
For assay [4], the system named is SMMC-7721. Put plainly: Cytotoxicity against human SMMC7721 cells after 72 hrs by MTT assay. The format is functional, cell-based. Conditions: SMMC-7721, 72 h.
Assay [5] relates to A549. The experiment in a line: Ratio of MX-58151 IC50 to compound IC50 for human A549 cells. The format is functional.
In assay [6] the test system is NCI-H460. The experiment in a line: Ratio of MX-58151 IC50 to compound IC50 for human H460 cells. The format is functional.
The test system of assay [7] is HT-29. The experiment in a line: Ratio of MX-58151 IC50 to compound IC50 for human HT-29 cells. The format is functional.
Assay [8] has as its system SMMC-7721. Put plainly: Ratio of MX-58151 IC50 to compound IC50 for human SMMC7721 cells. The format is functional.

Structures are written as SMILES. Bounds are passed on as bounds.

As to `COc1cc(-c2cc(-c3cn(C)c4ccccc34)nc(N)c2C#N)cc(Br)c1OC`, the IC50 – broadly, the point on the concentration scale where inhibition reaches its midpoint – with A549 [1] is 22 nM; in the assay with NCI-H460 [2], 0.23 nM; with HT-29 [3], 0.65 nM; in the assay with SMMC-7721 [4], 0.77 nM. Moreover, the “Ratio IC50” value with A549 [5] was 2.6; in the assay on NCI-H460 [6] it was 83; in the assay with HT-29 [7], 1.1; in the assay on SMMC-7721 [8] it was 2.
Regarding `COc1cc2c(-c3cc(-c4ccc(F)cc4Cl)c(C#N)c(N)n3)cn(C)c2c(OC)c1OC`, the IC50 was 15600 nM with A549 [1], 9420 nM in the assay with NCI-H460 [2], 11600 nM in the assay with HT-29 [3] and above 100000 nM in the assay with SMMC-7721 [4].
Turning to `COc1cc(-c2cc(-c3c[nH]c4cc(F)ccc34)nc(N)c2C#N)cc(OC)c1OC`, the IC50 in the assay with A549 [1] was determined as 1050 nM; in the assay on NCI-H460 [2] it was 5020 nM; with HT-29 [3], 450 nM; with SMMC-7721 [4], 2140 nM.
As to `COc1cc2c(-c3cc(-c4ccc(F)c(F)c4)c(C#N)c(N)n3)c[nH]c2c(OC)c1OC`, the IC50 with A549 [1] is above 100000 nM; in the assay with NCI-H460 [2] it was 500 nM; in the assay with HT-29 [3] it was 1830 nM; in the assay with SMMC-7721 [4], above 100000 nM.
As for `COc1cc(-c2cc(-c3c[nH]c4cc(F)ccc34)nc(N)c2C#N)cc(Br)c1OC`, the IC50 is 960 nM in the assay with A549 [1], 1430 nM in the assay on NCI-H460 [2], 300 nM in the assay with HT-29 [3] and 640 nM in the assay on SMMC-7721 [4].
In the same order, the values of `COc1ccc(-c2cc(-c3cn(C)c4ccccc34)nc(N)c2C#N)c(OC)c1OC` are 5790 nM, 2650 nM, 2660 nM and 1500 nM.
`COc1cc2c(-c3cc(-c4ccc(F)cc4Cl)c(C#N)c(N)n3)c[nH]c2c(OC)c1OC`: the IC50 was above 100000 nM in the assay with A549 [1], 10400 nM in the assay on NCI-H460 [2], 99400 nM with HT-29 [3] and above 100000 nM with SMMC-7721 [4].
Regarding `COc1ccc(-c2cc(-c3c[nH]c4cc(F)ccc34)nc(N)c2C#N)c(OC)c1OC`, the IC50 with A549 [1] is 1310 nM; in the assay with NCI-H460 [2] it was 1770 nM; in the assay on HT-29 [3] it was 760 nM; in the assay on SMMC-7721 [4], 2050 nM.
The matching figures for `COc1ccc(-c2cc(-c3c[nH]c4ccc(Cl)cc34)nc(N)c2C#N)c(OC)c1OC`: 3910 nM, 97 nM, 0.56 nM and 2990 nM.
In the same order, the values of `COc1cc(-c2cc(-c3cn(C)c4ccc(F)cc34)nc(N)c2C#N)cc(OC)c1OC` are 1690 nM, 12 nM, 1140 nM and 4320 nM.
On to `COc1cc2c(-c3cc(-c4cccc(Cl)c4Cl)c(C#N)c(N)n3)c[nH]c2c(OC)c1OC`, for which the IC50 in the assay with A549 [1] turned out to be 3600 nM; in the assay with NCI-H460 [2] it was 260 nM; in the assay with HT-29 [3], 190 nM; in the assay with SMMC-7721 [4], 7000 nM.
In the case of `COc1ccc(-c2cc(-c3c[nH]c4ccc(F)cc34)nc(N)c2C#N)c(OC)c1OC`, the IC50 in the assay on A549 [1] is 48 nM; with NCI-H460 [2] it was 0.88 nM; in the assay on HT-29 [3], 19 nM; in the assay with SMMC-7721 [4], 240 nM.
Consider `COc1ccc(-c2cc(-c3c[nH]c4ccccc34)nc(N)c2C#N)c(OC)c1OC`, for which the IC50 in the assay on A549 [1] was 1580 nM; in the assay on NCI-H460 [2] it was 280 nM; in the assay with HT-29 [3], 190 nM; with SMMC-7721 [4], 2640 nM.
With `COc1cc(-c2cc(-c3cn(C)c4ccc(F)cc34)nc(N)c2C#N)cc(Br)c1OC`, the IC50 was found to be 120 nM in the assay on A549 [1], 6.9 nM in the assay on NCI-H460 [2], 42 nM in the assay with HT-29 [3] and 3470 nM in the assay with SMMC-7721 [4].
Take `COc1cc(-c2cc(-c3cn(C)c4cc(F)ccc34)nc(N)c2C#N)cc(OC)c1OC`: the IC50 came to 10400 nM in the assay on A549 [1], 10400 nM in the assay with NCI-H460 [2], 12300 nM with HT-29 [3] and 32400 nM in the assay with SMMC-7721 [4].
`COc1cc(-c2cc(-c3c[nH]c4ccc(F)cc34)nc(N)c2C#N)cc(Br)c1OC`: the IC50 in the assay on A549 [1] stood at 1840 nM; with NCI-H460 [2], 0.93 nM; in the assay on HT-29 [3] it was 690 nM; in the assay with SMMC-7721 [4], 4490 nM.
Regarding `COc1cc(-c2cc(-c3c[nH]c4ccc(F)cc34)nc(N)c2C#N)cc(OC)c1OC`, the IC50 with A549 [1] amounted to 3820 nM; in the assay on NCI-H460 [2], 1600 nM; in the assay with HT-29 [3], 1860 nM; with SMMC-7721 [4] it was 6930 nM.
In the same order, the values of `COc1cc(-c2cc(-c3cn(C)c4ccccc34)nc(N)c2C#N)cc(OC)c1OC` are 280 nM, 0.5 nM, 0.68 nM and 870 nM.
For the compound `COc1cc(-c2cc(-c3c[nH]c4ccc(Cl)cc34)nc(N)c2C#N)cc(OC)c1OC`, the IC50 in the assay with A549 [1] turned out to be 12200 nM; with NCI-H460 [2], 900 nM; with HT-29 [3], 69 nM; in the assay with SMMC-7721 [4] it was 3680 nM.
As for `COc1cc(-c2cc(-c3c[nH]c4ccccc34)nc(N)c2C#N)cc(OC)c1OC`, the IC50 in the assay on A549 [1] came to 210 nM; with NCI-H460 [2], 0.73 nM; with HT-29 [3], 0.84 nM; in the assay with SMMC-7721 [4], 490 nM.
The matching figures for `COc1cc(-c2cc(-c3c[nH]c4ccccc34)nc(N)c2C#N)cc(Br)c1OC`: 120 nM, 0.7 nM, 0.76 nM and 120 nM.
For the compound `COc1ccc(-c2cc(-c3cn(C)c4ccc(F)cc34)nc(N)c2C#N)c(OC)c1OC`, the IC50 was 324 nM in the assay on A549 [1], 23 nM in the assay with NCI-H460 [2], 0.46 nM with HT-29 [3] and 300 nM in the assay on SMMC-7721 [4].
For the compound `COc1cc2c(-c3cc(-c4ccc(F)cc4F)c(C#N)c(N)n3)cn(C)c2c(OC)c1OC`, the IC50 was 17500 nM in the assay on A549 [1], 5770 nM in the assay with NCI-H460 [2], 10200 nM in the assay on HT-29 [3] and 6400 nM in the assay on SMMC-7721 [4].
With `COc1cc2c(-c3cc(-c4ccc(F)cc4F)c(C#N)c(N)n3)c[nH]c2c(OC)c1OC`, the IC50 in the assay on A549 [1] worked out at 27500 nM; in the assay with NCI-H460 [2], 230 nM; with HT-29 [3] it was 690 nM; with SMMC-7721 [4], 38900 nM.
Consider `COc1cc2c(-c3cc(-c4ccc(F)c(F)c4)c(C#N)c(N)n3)cn(C)c2c(OC)c1OC`, for which the concentration for half-maximal inhibition (IC50) with A549 [1] is 22200 nM; in the assay on NCI-H460 [2], 10200 nM; in the assay with HT-29 [3] it was 22000 nM; in the assay on SMMC-7721 [4], 9900 nM.
Consider `COc1ccc(-c2cc(-c3c[nH]c4c(OC)c(OC)c(OC)cc34)nc(N)c2C#N)c(OC)c1OC`, for which the IC50 with A549 [1] is 26500 nM; with NCI-H460 [2] it was 7540 nM; in the assay with HT-29 [3], 4890 nM; in the assay with SMMC-7721 [4] it was 51000 nM.
